From patent publication US8609719B2, “Propargylated aminoindans, processes for preparation, and uses thereof” (priority 2006, dated 2013)
Counter-ions that a name gives are not always drawn. Like-named read-outs stand apart in the source and are kept apart here.

Biological target: T1, MAO-A (Rattus norvegicus, UniProt P21396)
T1 construct: from tissue; host or cells: brain, liver and intestine (duodenum) of dosed rats
T1 sequence (P21396 1-526): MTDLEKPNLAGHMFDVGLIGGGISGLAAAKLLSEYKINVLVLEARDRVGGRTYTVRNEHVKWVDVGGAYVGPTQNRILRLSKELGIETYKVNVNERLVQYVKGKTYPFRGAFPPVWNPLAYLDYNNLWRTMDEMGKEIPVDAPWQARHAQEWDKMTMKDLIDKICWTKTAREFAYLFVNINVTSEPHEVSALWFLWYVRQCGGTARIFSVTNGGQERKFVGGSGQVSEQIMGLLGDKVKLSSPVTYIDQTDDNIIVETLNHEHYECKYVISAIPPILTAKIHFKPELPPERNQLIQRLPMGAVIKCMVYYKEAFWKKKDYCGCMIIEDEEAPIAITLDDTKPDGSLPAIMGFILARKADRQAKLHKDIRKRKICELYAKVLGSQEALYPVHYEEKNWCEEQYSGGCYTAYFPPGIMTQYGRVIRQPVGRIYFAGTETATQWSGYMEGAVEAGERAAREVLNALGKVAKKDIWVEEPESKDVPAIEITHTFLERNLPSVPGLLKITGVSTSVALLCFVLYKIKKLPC
Test: MAO-A inhibition in rat organs after chronic P.O. administration
Type: in vivo
Conditions: po, 7 days, 2 hours after last dose; for inhibition at 37.5 µmol/kg: 37.5 μmol/kg P.O. daily; for inhibition at 75 µmol/kg: 75 μmol/kg P.O. daily; for inhibition at 150 µmol/kg: 150 μmol/kg P.O. daily
Experimental: 30 rats were separated randomly into 5 testing groups of 6 rats each. Group 1 was the control group to which no drug was administered. Ethyl-hydroxymethyl-carbamic acid 3-R-(prop-2-ynylamino)-indan-5-yl ester fumarate (2:1) was administered to groups 2, 3, 4 in dosages of 150, 75, and 37.5 μmol/kg respectively, daily, perorally (“P.O.”) for seven consecutive days. Water was used as a vehicle.
Rats were sacrificed, out of sight of the other rats, 2 hours after the last administration. Brains were removed into Petri dishes on ice, the cerebellums were […], and the brains cut into halves for analysis. Livers and intestines were removed for MAO determination. Organs were homogenated for enzyme inhibition analysis.
The MAO inhibition after administration of ethyl-hydroxymethyl-carbamic acid 3-R-(prop-2-ynylamino)-indan-5-yl ester fumarate (2:1) in various organs is listed in Table 4 calculated in percent relative to the control group.

[1] = read-out: Brain MAO-A inhibition relative to control
[2] = read-out: Duodenum MAO-A inhibition relative to control
[3] = read-out: Liver MAO-A inhibition relative to control

C#CCN[C@@H]1CCc2ccc(OC(=O)N(CC)CO)cc21 [R-HCPAI, Ethyl-hydroxymethyl-carbamic acid 3-R-(prop-2-ynylamino)-indan-5-yl ester fumarate (2:1)]
inhibition at 37.5 µmol/kg [1]: 8% | inhibition at 37.5 µmol/kg [2]: -25% | inhibition at 37.5 µmol/kg [3]: 3% | inhibition at 75 µmol/kg [1]: 41% | inhibition at 75 µmol/kg [2]: 18% | inhibition at 75 µmol/kg [3]: 9% | inhibition at 150 µmol/kg [1]: 72% | inhibition at 150 µmol/kg [2]: 21% | inhibition at 150 µmol/kg [3]: 16%
